According to patent US20040097539A1, “Hsp inductor” (priority 2001, published 2004):

Tests used:
human COX-1 = biological target: T1, human COX-1 (Homo sapiens, UniProt P23219); assay: COX-1 inhibiting activity (chemiluminescence, microsome fractions); format: biochemical; settings: microsome fractions from COX-1 expressing Sf-21 cells, 37° C. 25 min preincubation, arachidonic acid
T1 construct: made in house; host or cells: Sf-21 insect cells, recombinant baculovirus BAC-COX1 (pFASTBAC1), microsome fraction
T1 sequence (P23219 24-599): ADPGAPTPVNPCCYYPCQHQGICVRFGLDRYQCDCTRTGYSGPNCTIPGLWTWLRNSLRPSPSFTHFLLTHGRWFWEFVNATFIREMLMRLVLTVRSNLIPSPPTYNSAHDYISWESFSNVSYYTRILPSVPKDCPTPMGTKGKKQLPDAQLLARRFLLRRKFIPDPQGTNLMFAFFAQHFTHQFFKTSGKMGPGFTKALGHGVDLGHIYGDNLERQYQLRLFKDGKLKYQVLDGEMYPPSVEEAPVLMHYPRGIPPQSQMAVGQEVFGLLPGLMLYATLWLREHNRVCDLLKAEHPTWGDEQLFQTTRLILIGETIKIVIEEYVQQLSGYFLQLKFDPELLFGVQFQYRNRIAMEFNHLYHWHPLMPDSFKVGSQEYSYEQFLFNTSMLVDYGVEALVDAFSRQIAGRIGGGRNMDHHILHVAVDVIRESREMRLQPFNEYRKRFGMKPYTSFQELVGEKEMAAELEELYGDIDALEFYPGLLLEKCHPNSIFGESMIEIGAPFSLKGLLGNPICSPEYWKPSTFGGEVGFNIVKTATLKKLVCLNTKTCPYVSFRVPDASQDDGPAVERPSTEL
Description: A 1.8 kb DNA fragment containing human COX-1 cDNA (FASEB J., 5 (9), 2304-2312 (1991)) prepared by the PCR method was inserted into plasmid pFASTBAC1 (CIBCOBRL) to obtain a plasmid pFBCOX1.
Using the plasmid pFBCOX1 and BAC-TO-BAC Baculovirus Expression System (GIBCOBRL), a virus stock BAC-COX1 of the recombinant baculovirus was prepared.
Sf-21 cells were inoculated in 125 mL of Sf-900 II SFM medium (GIBCOBRL) at a concentration of 1×10^6 cells/mL, and the medium was incubated at 27° C. for 24 hrs. 0.75 mL of the virus stock BAC-COX1 of the recombinant baculovirus was added, and the mixture was incubated for additional 72 hrs. The cells were separated from the medium by centrifugation (3000 rpm, 10 min.), and washed with PBS twice. The cells were suspended in 10 mL of a lysis buffer (0.1 M Tris-HCl (pH 7.4), 5 mM EDTA), and were treated with a homogenizer (POLYTRON) three times at 20000 rpm for 20 seconds so that the cells were crushed. The supernatant obtained after centrifugation (2000 rpm, 10 min.) was further centrifuged (40000 rpm, 45 min.) to give a precipitate, which was resuspended in a Lysis buffer (0.1 M Tris-HCl (pH 7.4), 5 mM EDTA), and the suspension was stored at −80° C.
(§1) To a mixture of […] of a reaction buffer previously concentrated 10 times (1 M Tris-HCl (pH 8.0), 50 mM EDTA, 1.0% Tween 20, 50 mM luminol, 100 mM hematin), 20 mL of the microsome fractions (COX-1: 40 mg, COX-2: 20 mg), and […] of distilled water, a sample compound dissolved in DMF (5 mL) was added, and the mixture was left at 37° C. for 25 min. The reaction was started by the addition of 20 mM arachidonic acid ([…]), and chemiluminescence amount during the 10-second period after the addition of arachidonic acid was determined by the use of Lumistar (BMG Lab technologies, GmbH). The inhibition rate was calculated, regarding that the enzyme activity when DMF ([…]) was added was 100%, and the enzyme activity was 0% when 4 mM flurbiprofen (5 mL) was added.

human COX-2 = biological target: T2, human COX-2 (Homo sapiens, UniProt P35354); assay: COX-2 inhibiting activity (chemiluminescence, microsome fractions); format: biochemical; settings: microsome fractions from COX-2 expressing Sf-21 cells, 37° C. 25 min preincubation, arachidonic acid
T2 construct: made in house; host or cells: Sf-21 insect cells, recombinant baculovirus BAC-COX2 (pFASTBAC1), microsome fraction
T2 sequence (P35354 18-604): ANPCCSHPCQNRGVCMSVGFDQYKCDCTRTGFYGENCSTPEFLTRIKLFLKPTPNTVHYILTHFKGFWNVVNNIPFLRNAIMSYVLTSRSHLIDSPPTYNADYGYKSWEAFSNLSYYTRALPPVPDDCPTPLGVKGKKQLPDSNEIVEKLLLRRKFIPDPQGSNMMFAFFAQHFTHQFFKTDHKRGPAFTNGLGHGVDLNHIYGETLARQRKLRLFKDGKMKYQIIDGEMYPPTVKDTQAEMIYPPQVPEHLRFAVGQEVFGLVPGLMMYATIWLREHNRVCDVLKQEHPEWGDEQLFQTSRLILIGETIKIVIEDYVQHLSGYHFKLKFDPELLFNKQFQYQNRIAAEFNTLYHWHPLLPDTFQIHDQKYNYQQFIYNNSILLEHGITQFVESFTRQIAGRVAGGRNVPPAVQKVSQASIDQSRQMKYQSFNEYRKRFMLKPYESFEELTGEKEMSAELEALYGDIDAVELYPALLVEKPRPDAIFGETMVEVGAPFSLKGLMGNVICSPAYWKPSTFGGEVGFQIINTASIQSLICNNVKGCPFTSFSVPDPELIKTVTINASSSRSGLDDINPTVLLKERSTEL
Description: A 1.8 kb DNA fragment containing human COX-2 cDNA (Proc. Natl. Acad. Sci. U.S.A., 89 (16), 7384-7388-(1992)) prepared by the PCR method was inserted into plasmid pFASTBAC1 (CIBCOBRAL) to obtain a plasmid pFBCOX2.
Using the plasmid pFBCOX2 and BAC-TO-BAC Baculovirus Expression System (GIBCOBRAL), a virus stock BAC-COX2 of the recombinant baculovirus was prepared.
Sf-21 cells were inoculated in 125 mL of LSf-900 II SFM medium (GIBCOBRAL) at a concentration of 1×10^6 cells/mL, and the medium was incubated at 27° C. for 24 hrs. 0.75 mL of the virus stock BAC-COX2 of the recombinant baculovirus was added, and was incubated for additional 72 hrs. The cells were separated from the medium by centrifugation (3000 rpm, 10 min.), and washed twice with PBS. The cells were suspended in 10 mL of a Lysis buffer (0.1 M Tris-HCl (pH 7.4), 5 mM EDTA), and were treated with a homogenizer (POLYTRON), three times at 20000 rpm for 20 sec. so that the cells were crushed. The supernatant thus obtained after centrifugation (2000 rpm, 10 min.) was further centrifuged (40000 rpm, 45 min.) to obtain a precipitate, which was resuspended in a Lysis buffer (0.1 M Tris-HCl (pH 7.4), 5 mM EDTA), and the suspension was stored at −80° C.
as §1

Male ICR-mice = assay: Acetic acid rising method (analgesic activity); format: in vivo; settings: oral, 30 min before 0.6% acetic acid i.p., rising and stretching counted for 20 min
Description: Male ICR-mice (5 weeks old, CLEA Japan) were used (1 group, 10 mice), and a sample was orally administered (0.2 mL/10 g, b.w.). After 30 min., 0.6% acetic acid solution was injected to mice intraperitoneally (0.1 mL/10 g, b.w.), and the mice were immediately transferred into an observation cage made of a transparent acrylic resin. The number of mice rising and stretching during the following period of 20 min. was counted. The repression rate (%) was calculated by comparing the average numbers between the sample groups and the control groups and ID50 value was calculated.

Male SD rats [1] = assay: Carrageenin edema test; format: in vivo; settings: oral, 1 hr before 1% carrageenin in footpad, foot volume after 2 hr and 3 hr
Description: Male SD rats (6-week-old, CLEA Japan) were used (6 rats per group). The carrageenin edema test was performed in accordance with the method of Winter et al. (Proc. Soc. Exp. Biol. Med., 111, 544-547, 1962). The volume of the footpad of the right hind limb was measured. Then, the test compound was orally administered (1.0 mL/100 g body weight), and immediately thereafter, water was orally administered to 5 mL/rat. Vehicle alone was orally administered to control group. After 1 hr., 0.05 mL of saline containing 1% carrageenin was subcutaneously injected into the footpad of the right hind limb to induce edema. After 2 hr. and 3 hr., the volume of the footpad of the right hind limb was measured. For the effects of the compound, the difference in the volume of the foot before and 2 hr. and 3 hr. after the carrageenin injection was determined, from which inhibitory rate (%) relative to the control group was calculated, and ID30 was determined.

HSP27 gene expression = assay: HSP27-inducing activity in gastric mucosa (TaqMan PCR); format: in vivo; settings: rats, oral 30 mg/ml, gastric mucosa 2 hr after administration
Description: Compound A (30 mg/ml) and vehicle were orally administered to rats. After 2 hr., stomach was excised from the rats, opened and washed with ice-cooled physiological saline. Gastric mucosa was taken from the stomach using sterilized cover glass, and immediately suspended in ISOGEN (Wako Pure Chemical Industries, Ltd.). Total RNA was prepared from the gastric mucosa according to instructions, and purified by RNAeasy Midi Kit (QIAGEN). Then cDNA was synthesized from the total RNA using TaqMan Gold RT-PCR Kit (Applied Biosystems), and subjected to TaqMan PCR using ABI7700 (Applied Biosystems), based on which the amount of HSP 27 gene expression was determined. Forward primer used was 5′-[…]-3′ (SEQ ID NO:1), Reverse primer used was 5′-[…]-3′ (SEQ ID NO:2), and TaqMan probe used was 5′-[…]-3′ (SEQ ID NO:3) labeled with FAM (6-carboxyfluorescein). Additionally, the amount of GAPDH gene expression was determined using TaqMan Rodent GAPDH Control Reagents VIC probe (Applied Biosystems) and G3PDH cDNA Control probe (CLONTECH), and the amount was employed as an internal control. The amount of HSP27 gene expression is shown by the values calibrated with an amount of internal control (i.e., GAPDH gene) expression (Table 4).

Male SD rats [2] = assay: Test for gastric mucosa disorder; format: in vivo; settings: oral 300 mg/kg, stomach examined after 24 hr
Description: Male SD rats (6 rats, 7 weeks old, CLEA Japan) were used. The test compound was orally administered (5 mL/kg, b.w.) to the rats after 24 hr-fasting or without fasting. After 23.5 hrs., the rats were intravenously injected with Evan's Blue (0.5% Evan's Blue/saline, 1 mL/rat) without anesthesia. After 30 min., the rats were laparotomized and stomach was excised. Esophagus was clipped. A 1% formalin solution (8 mL) was infused to the esophagus, and duodenum was clipped. The stomach was immersed in a 1% formalin solution for 10 min. or more, and sectioned along the line from duodenum to greater curvature of the stomach. After washing the stomach, the total length (mm^2) of the site (hemorrhage site: detachment of mucosa-ulcer) stained with Evan's Blue was measured with a counter under a stereomicroscope and recorded.

## Cc1nn(-c2ccccn2)c2[nH]c3cc(F)c(F)cc3c(=O)c12 [Compound B, 6,7-Difluoro-3-methyl-1-(2-pyridinyl)-1,9-dihydro-4H-pyrazolo[3,4-b]quinolin-4-one]
Human COX-1
  IC50: 527 nM
Human COX-2
  IC50: 295 nM

## Cc1nn(-c2ccccn2)c2[nH]c3cc(F)c(Cl)cc3c(=O)c12 [Compound C, 6-Chloro-7-fluoro-3-methyl-1-(2-pyridinyl)-1,9-dihydro-4H-pyrazolo[3,4-b]quinolin-4-one]
Human COX-1
  IC50: 263 nM
Human COX-2
  IC50: 213 nM

## O=c1c2cc(Cl)ccc2[nH]c2c1cnn2-c1ccccn1 [Compound D, 6-Chloro-1-(2-pyridinyl)-1,9-dihydro-4H-pyrazolo[3,4-b]quinolin-4-one]
Human COX-1
  IC50: 600 nM
Human COX-2
  IC50: 360 nM

## Cc1nn(-c2ccccn2)c2[nH]c3ccc(C(F)(F)F)cc3c(=O)c12 [Compound A, 3-Methyl-1-(2-pyridinyl)-6-(trifluoromethyl)-1,9-dihydro-4H-pyrazolo[3,4-b]quinolin-4-one]
Human COX-1
  IC50: 450 nM
Human COX-2
  IC50: 380 nM
Male ICR-mice
  ID50: 0.9 mg/kg
Male SD rats [1]
  ID30: 2.2 mg/kg
HSP27 gene expression; calibrated with GAPDH expression
  HSP27/GAPDH (x10^4): 197 ± 20
HSP27 gene expression; relative to vehicle
  HSP27/GAPDH (% of control): (277) % of control
Male SD rats [2]; after 24 hr-fasting
  Area of lesion (mm^2) (average), Administration after 24 hr-fasting: 0.2 mm^2
Male SD rats [2]; without fasting
  Area of lesion (mm^2) (average), Administration without fasting: 0 mm^2
